Measured values reported in ChEMBL document CHEMBL6103579, “Antiproliferative activity of selenium-enriched coumarin derivatives on the SK-N-SH neuroblastoma cell line: Mechanistic insights” (Eur J Med Chem, 2025).
Activity calls are given as the source filed them. The rule behind the calls is not given here.

Legend:
[1] = Drug localization in nucleus of human SK-N-SH cells assessed as increase in green fluorescence at 6 uM measured after 48 hrs by DAPI staining based fluorescence microscopic analysis; assay type: ADME, subcellular
[2] = Toxicity in female ICR mouse assessed as change in organ coefficient of heart at 10 mg/kg, ip […] (reference value: 0.006+/-0.002); assay type: organism-based; conditions: in vivo
[3] = target: Quadruplex DNA; experiment: Binding affinity to HRCC G4 DNA (mitochondrial DNA) (unknown origin) assessed as dissociation constant by SPR analysis; assay type: nucleic-acid assay
[4] = tested on: SK-N-SH; experiment: Induction of mitochondrial dysfunction in human SK-N-SH cells assessed as increase in intracellular green fluorescence intensity at 6 uM; assay type: functional, cell-based; conditions: time 2-48 hrs
[5] = Toxicity in female ICR mouse assessed as abnormal movement at 10 to 20 mg/kg, ip; assay type: organism-based; conditions: in vivo, dose 10-20 mg/kg
[6] = Toxicity in female ICR mouse assessed as change in organ coefficient of lung at 20 mg/kg, ip […] (reference value: 0.007+/-0.001); assay type: organism-based; conditions: in vivo
[7] = tested on: SK-N-SH; experiment: Upregulation of Bax expression in human SK-N-SH cells at 3 to 9 uM measured after 48 hrs by Western blot analysis; assay type: functional, cell-based; conditions: dose 3-9 µM
[8] = tested on: N2a; experiment: Antitumor activity against mouse N2a cells implanted in female ICR mouse model assessed as reduction in tumor weight at 10 mg/kg, ip measured upto 8 days (reference value: 0.9 +/-0.26 g); assay type: functional; conditions: time <= 8 day
[9] = tested on: N2a; experiment: Antitumor activity against mouse N2a cells implanted in female ICR mouse model assessed as change in body weight at 20 mg/kg, ip measured upto 8 days (reference value: 25.54 +/-2.19 g); assay type: functional; conditions: time <= 8 day
[10] = Drug localization in cytoplasm of human SK-N-SH cells assessed as increase in green fluorescence at 6 uM measured after 48 hrs by DAPI staining based fluorescence microscopic analysis; assay type: ADME, subcellular
[11] = tested on: SK-N-SH; experiment: Antiproliferative activity against human SK-N-SH cells assessed as reduction in cell proliferation incubated for 60 hrs by CCK-8 method; assay type: functional, cell-based; conditions: dose 0.5-2 µM
[12] = Toxicity in female ICR mouse assessed as change in organ coefficient of kidney at 20 mg/kg, ip […] (reference value: 0.007); assay type: organism-based; conditions: in vivo
[13] = Toxicity in female ICR mouse assessed as histomorphological changes in liver at 10 to 20 mg/kg, ip H and E staining based analysis; assay type: organism-based; conditions: in vivo, dose 10-20 mg/kg
[14] = tested on: SK-N-SH; experiment: Induction of mitochondrial dysfunction in human SK-N-SH cells assessed as appearance of blurred mitochondria at 6 uM measured after 48 hrs by fluorescence microscopic analysis; assay type: functional, cell-based
[15] = Toxicity in female ICR mouse assessed as hyperplasia in liver at 10 to 20 mg/kg, ip by H and E staining based analysis; assay type: organism-based; conditions: in vivo, dose 10-20 mg/kg
[16] = Toxicity in female ICR mouse assessed as histomorphological changes in spleen at 10 to 20 mg/kg, ip H and E staining based analysis; assay type: organism-based; conditions: in vivo, dose 10-20 mg/kg
[17] = target: Quadruplex DNA; experiment: Binding affinity to BCL-2 G4 DNA (unknown origin) assessed as dissociation constant by SPR analysis; assay type: nucleic-acid assay
[18] = Downregulation of Beta-catenin expression in human SK-N-SH cells at 9 uM measured after 48 hrs by Western blot analysis relative to control; assay type: functional
[19] = Toxicity in female ICR mouse assessed as change in organ coefficient of heart at 20 mg/kg, ip […] (reference value: 0.006+/-0.002); assay type: organism-based; conditions: in vivo
[20] = tested on: SK-N-SH; experiment: Antiproliferative activity against human SK-N-SH cells assessed as reduction in cell proliferation at 1 uM incubated for 60 hrs by CCK-8 method relative to control; assay type: functional; parameters: scale not given: the % may be the effect or the level left
[21] = tested on: N2a; experiment: Antiproliferative activity against mouse N2a cells assessed as inhibition of cell growth incubated for 60 hrs by CCK-8 method; assay type: functional, cell-based
[22] = tested on: SK-N-SH; experiment: Induction of apoptosis in human SK-N-SH cells assessed as increase in apoptotic cells measured after 48 hrs by FITC and PI staining based flow cytometry analysis; assay type: functional, cell-based; conditions: dose 3-9 µM
[23] = tested on: SK-N-SH; experiment: Antiproliferative activity against human SK-N-SH cells assessed as reduction in cell proliferation at 0.5 uM incubated for 60 hrs by CCK-8 method relative to control; assay type: functional; parameters: scale not given: the % may be the effect or the level left
[24] = tested on: N2a; experiment: Antitumor activity against mouse N2a cells implanted in female ICR mouse model assessed as reduction in cell nuclear size at 10 to 20 mg/kg, ip by H and E staining based analysis; assay type: functional, organism-based; conditions: dose 10-20 mg/kg
[25] = tested on: SK-N-SH; experiment: Upregulation of cytochrome C level in human SK-N-SH cells at 6 uM measured after 48 hrs by immunofluorescence staining based microscopic analysis; assay type: functional, cell-based
[26] = Toxicity in female ICR mouse assessed as appearance of intact glomeruli in kidney at 10 to 20 mg/kg, ip H and E staining based analysis; assay type: organism-based; conditions: in vivo, dose 10-20 mg/kg
[27] = tested on: SK-N-SH; experiment: Inhibition of cell invasion in human SK-N-SH cells at 0.5 to 2 uM measured after 48 hrs by crystal violet staining based microscopic analysis; assay type: functional; conditions: dose 0.5-2 µM
[28] = Downregulation of Beta-catenin expression in human SK-N-SH cells at 6 uM measured after 48 hrs by Western blot analysis relative to control; assay type: functional
[29] = tested on: SK-N-SH; experiment: Antiproliferative activity against human SK-N-SH cells assessed as reduction in cell proliferation at 2 uM incubated for 60 hrs by CCK-8 method relative to control; assay type: functional; parameters: scale not given: the % may be the effect or the level left
[30] = tested on: N2a; experiment: Antitumor activity against mouse N2a cells implanted in female ICR mouse model assessed as tumor inhibition rate at 10 mg/kg, ip measured upto 8 days relative to control; assay type: functional; parameters: scale not given: the % may be the effect or the level left; conditions: time <= 8 day
[31] = Toxicity in female ICR mouse assessed as change in organ coefficient of liver at 10 mg/kg, ip […] (reference value: 0.058+/-0.010); assay type: organism-based; conditions: in vivo

N#C[Se]CCCOc1ccc2cc(C(=O)N3N=C(c4ccc(F)cc4)CC3c3ccc(F)cc3)c(=O)oc2c1 (stereo unspecified)
Drug uptake [1]: Not_active
Activity [2]: 0.005
Kd [3]: 14.2 nM
Activity [4]: Time-dependent-effect
Activity [5]: Non-toxic
Activity [6]: 0.007
Activity [7]: Active
Activity [8]: 0.19 g
Activity [9]: 26.34 g
Drug uptake [10]: Active
Activity [11]: Dose-dependent-effect
Activity [12]: 0.008
Activity [13]: Non-toxic
Activity [14]: Active
Activity [15]: Non-toxic
Activity [16]: Non-toxic
Kd [17]: 78.5 nM
Activity [18]: 42.2%
Activity [19]: 0.005
Activity [20]: 63.8%
IC50 [21]: 17900 nM
Activity [22]: Dose-dependent-effect
Activity [23]: 24.1%
Activity [24]: Active
Activity [25]: Active
Activity [26]: Non-toxic
inhibition [27]: Active
Activity [28]: 70.8%
Activity [29]: 81.4%
Activity [30]: 79.1%
Activity [31]: 0.059
